# Test results published in article PMC12226733, “Evolution of iGluR ligand specificity, polyamine regulation, and ion selectivity inferred from a placozoan epsilon receptor” (Communications Biology, 2025).
# Several values for one entry are separate records, joined by “and”; a condition that tells them apart may be missing. Identical values can stand only once. Like-named read-outs stand apart in the source and are kept apart here.
# Experiments:
# GluA2 Q607S = molecular target: T1, GluA2 Q607S (Homo sapiens, UniProt P42262, Q607S); test: outside-out patch clamp, block by intracellular spermine, HEK-293T/17 cells; type: biochemical;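 for Normalized conductance (Gnorm): normalized to each receptor's own maximal conductance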
# T1 construct: host or cells: HEK-293T/17
# T1 sequence (P42262 25-883 Q607S): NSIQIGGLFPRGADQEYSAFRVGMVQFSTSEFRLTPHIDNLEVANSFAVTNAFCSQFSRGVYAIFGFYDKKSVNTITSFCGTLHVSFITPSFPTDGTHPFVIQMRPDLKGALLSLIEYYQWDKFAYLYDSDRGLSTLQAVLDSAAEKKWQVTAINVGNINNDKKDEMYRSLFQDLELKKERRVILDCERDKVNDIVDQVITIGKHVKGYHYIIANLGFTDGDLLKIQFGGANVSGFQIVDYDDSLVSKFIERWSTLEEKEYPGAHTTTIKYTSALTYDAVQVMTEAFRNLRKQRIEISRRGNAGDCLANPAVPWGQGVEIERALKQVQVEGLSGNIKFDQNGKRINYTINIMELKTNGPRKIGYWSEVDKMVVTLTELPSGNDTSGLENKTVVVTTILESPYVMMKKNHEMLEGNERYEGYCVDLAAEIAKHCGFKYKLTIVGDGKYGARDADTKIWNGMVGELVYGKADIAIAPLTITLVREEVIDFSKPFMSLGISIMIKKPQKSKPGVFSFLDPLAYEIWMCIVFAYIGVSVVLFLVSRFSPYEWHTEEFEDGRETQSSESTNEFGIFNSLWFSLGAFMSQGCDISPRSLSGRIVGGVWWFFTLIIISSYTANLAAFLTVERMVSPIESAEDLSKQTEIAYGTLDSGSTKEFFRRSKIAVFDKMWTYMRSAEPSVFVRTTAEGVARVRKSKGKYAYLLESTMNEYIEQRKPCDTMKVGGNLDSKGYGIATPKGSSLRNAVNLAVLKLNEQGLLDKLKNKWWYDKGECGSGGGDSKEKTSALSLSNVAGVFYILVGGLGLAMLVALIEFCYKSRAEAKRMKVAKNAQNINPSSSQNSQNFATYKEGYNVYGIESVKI
# Description: (§1) Parallel experiments were carried out in human GluA2 homotetramers bearing equivalent Q/R/N and +4 site mutations to compare the regulation of voltage-dependent polyamine block within the broader context of mammalian receptors. Experimental design remained the same, except for using 10 mM glutamate as the agonist used to evoke membrane currents (Fig. 7a, d, g, and j). […] Their properties were accordingly compared to wildtype GluA2(Q) co-expressed with TARP-γ2.
# (§2) HEK-293T/17 cells (ATCC) were maintained in MEM supplemented with GlutaMAX and 10% fetal bovine serum (FBS) at 37 °C and 5% CO2. […] Transient transfections were carried out 48 h post-plating using the calcium phosphate precipitation method. After 6–8 hours, cells were washed twice with PBS and maintained in fresh medium. Cells transfected with mammalian GluA2 cDNA (plasmid vector described above) were returned to an incubator at 37 °C for 24–48 hours and cells transfected with Epsilon GluE1αA were incubated at 28 °C for 48–72 hours. In cells co-transfected with TARP-γ2, 30 μM NBQX was included in the medium to minimize AMPAR/auxiliary-induced cytotoxicity. All constructs were co-transfected with a plasmid encoding enhanced green fluorescent protein (eGFP) to identify transfected cells. Electrophysiology responses were recorded from outside-out patches excised from transfected cells. Recording pipettes were composed of borosilicate glass (3 to 6 megaohm, King Precision Glass) coated with dental wax to reduce electrical noise. All recordings were performed using Axopatch 200B amplifier (Molecular Devices, LLC). Current records were filtered at 5 or 10 kHz and sampled at 25–50 kHz. Series resistance (3 to 12 megaohms) was compensated by 95%. Recordings were performed at a range of holding potentials from −100 mV to 100 mV to study polyamine block. Data was acquired using pClamp9 software (Molecular Devices, LLC). All experiments were performed at room temperature. All chemicals were purchased from Sigma-Aldrich, unless otherwise indicated. External solution contained (in mM): 150 NaCl, 5 HEPES, 0.1 CaCl2, 0.1 MgCl, and […], pH 7.3–7.4. […] The osmotic pressure of all solutions was adjusted to 295 to 300 mOsm with sucrose. […] Stocks were thawed on the day of the experiment and used to prepared agonist-containing external solutions. Raw data for all electrophysiology experiments are provided in Supplementary Data 3. Current-voltage (I-V) relationships were fit using Origin 7 (OriginLab) using a ninth order polynomial function to estimate the reversal potential (Vrev).
# (§3) Agonist-evoked membrane conductance (G) was calculated using the following equation: G=I/(V−Vrev)
# (§4) Conductance-voltage (G-V) relationships were fit using Origin 7 (OriginLab) with the single permeant blocker model as done previously[46]: G=Gmax/1+[Spm]/Kd Where Gmax is the maximal conductance, [Spm] is the internal Spm concentration, and Kd is the dissociation constant.
# (§5) Kd is defined as: Kd=koff+kperm/kon=sumofexitrates/bindingrate
# (§6) And redefined as: Kd=g*exp(V/h)+L*exp(V/k) Where h and k are voltage dependencies of g and L, respectively, and at 0 mV: g=koff/konandL=kperm/kon
# GluA2(Q) wt + γ2 = molecular target: T2, GluA2(Q) wt + γ2 (Homo sapiens, UniProt P42262); test: as above; type: biochemical; conditions: single recordings and AVG;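 for Normalized conductance (Gnorm) GluA2 wild type + γ2: normalized to each receptor's own maximal conductance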
# T2 construct: expressed in transfected cells; host or cells: HEK-293T/17
# T2 sequence (P42262 25-883): as the sequence (P42262 25-883 Q607S) above, with S583Q counted along it
# T2 sequence (Q9Y698 whole entry partner): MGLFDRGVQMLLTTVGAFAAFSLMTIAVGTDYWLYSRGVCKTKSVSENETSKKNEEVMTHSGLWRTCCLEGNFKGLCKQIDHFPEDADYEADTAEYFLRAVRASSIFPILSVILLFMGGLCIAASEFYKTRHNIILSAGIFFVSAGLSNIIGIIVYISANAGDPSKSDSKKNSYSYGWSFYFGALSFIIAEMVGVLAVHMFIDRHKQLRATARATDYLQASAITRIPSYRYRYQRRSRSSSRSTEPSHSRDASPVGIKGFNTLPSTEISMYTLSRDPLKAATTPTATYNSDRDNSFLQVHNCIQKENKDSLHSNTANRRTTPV
# Description: as §1, §2, §3, §4, §5, §6
# [1] = GluA2 Q670S, 10 mV, single recordings and AVG
# [2] = GluA2 Q670S, 20 mV, single recordings and AVG
# [3] = GluA2 Q670S, 30 mV, single recordings and AVG
# [4] = GluA2 Q670S, 40 mV, single recordings and AVG
# [5] = GluA2 Q670S, 50 mV, single recordings and AVG
# [6] = GluA2 Q670S, 60 mV, single recordings and AVG
# [7] = GluA2 Q670S, 70 mV, single recordings and AVG
# [8] = GluA2 Q670S, 80 mV, single recordings and AVG
# [9] = GluA2 Q670S, 90 mV, single recordings and AVG
# [10] = GluA2 Q670S, 100 mV, single recordings and AVG
# [11] = GluA2 Q670S, -100 mV, single recordings and AVG
smiles,measurement,setting,value
NCCCNCCCCNCCCN [spermine],Normalized current (Inorm),GluA2 Q607S,-0.0262
same,"h, voltage dependency of block onset",GluA2 Q607S; GluA2 Q607S,−14.0 ± 2.3 mV
same,"k, voltage dependency of block relief",GluA2 Q607S; GluA2 Q607S,164.4 ± 31.1 mV
same,Kd,"GluA2 Q607S; GluA2 Q607S, 30 µM internal Spm, 10 mM glutamate, read-out: Kd(0mV)",36.2 ± 6.7 µM
same,Normalized conductance (Gnorm),"GluA2 Q607S; GluA2 Q670S, 0 mV, single recording",0.58
same,Normalized conductance (Gnorm),GluA2 Q607S; [1],0.61 and 0.49 and 0.58 and 0.59 and 0.57
same,Normalized current (Inorm),GluA2 Q607S; [1],0.0362 and 0.03 and 0.04 and 0.0351 and 0.0359
same,Normalized conductance (Gnorm),GluA2 Q607S; [2],0.63 and 0.50 and 0.57 and 0.64 and 0.59
same,Normalized current (Inorm),GluA2 Q607S; [2],0.095 and 0.09 and 0.10 and 0.11
same,Normalized conductance (Gnorm),GluA2 Q607S; [3],0.65 and 0.52 and 0.57 and 0.61 and 0.59
same,Normalized current (Inorm),GluA2 Q607S; [3],0.16 and 0.15 and 0.17
same,Normalized conductance (Gnorm),GluA2 Q607S; [4],0.67 and 0.55 and 0.57 and 0.65 and 0.61
same,Normalized current (Inorm),GluA2 Q607S; [4],0.23 and 0.22 and 0.25
same,Normalized conductance (Gnorm),GluA2 Q607S; [5],0.68 and 0.55 and 0.59 and 0.63
same,Normalized current (Inorm),GluA2 Q607S; [5],0.29 and 0.28 and 0.33 and 0.30
same,Normalized conductance (Gnorm),GluA2 Q607S; [6],0.74 and 0.61 and 0.65 and 0.67
same,Normalized current (Inorm),GluA2 Q607S; [6],0.39 and 0.36 and 0.38
same,Normalized conductance (Gnorm),GluA2 Q607S; [7],0.69 and 0.61 and 0.66
same,Normalized current (Inorm),GluA2 Q607S; [7],0.43 and 0.41 and 0.48 and 0.44
same,Normalized conductance (Gnorm),GluA2 Q607S; [8],0.72 and 0.65 and 0.71 and 0.69
same,Normalized current (Inorm),GluA2 Q607S; [8],0.51 and 0.57 and 0.53
same,Normalized conductance (Gnorm),GluA2 Q607S; [9],0.70 and 0.62 and 0.71 and 0.68
same,Normalized current (Inorm),GluA2 Q607S; [9],0.56 and 0.55 and 0.64 and 0.59
same,Normalized conductance (Gnorm),GluA2 Q607S; [10],0.72 and 0.65 and 0.76 and 0.71
same,Normalized current (Inorm),GluA2 Q607S; [10],0.65 and 0.77 and 0.69
same,Normalized conductance (Gnorm),"GluA2 Q607S; GluA2 Q670S, -10 mV, single recordings and AVG",0.58 and 0.48 and 0.57 and 0.51 and 0.53
same,Normalized conductance (Gnorm),"GluA2 Q607S; GluA2 Q670S, -20 mV, single recordings and AVG",0.55 and 0.46 and 0.51 and 0.49 and 0.50
same,Normalized conductance (Gnorm),"GluA2 Q607S; GluA2 Q670S, -30 mV, single recordings and AVG",0.54 and 0.46 and 0.52 and 0.50
same,Normalized conductance (Gnorm),"GluA2 Q607S; GluA2 Q670S, -40 mV, single recordings and AVG",0.55 and 0.48 and 0.52 and 0.45 and 0.50
same,Normalized conductance (Gnorm),"GluA2 Q607S; GluA2 Q670S, -50 mV, single recordings and AVG",0.57 and 0.50 and 0.52 and 0.49
same,Normalized conductance (Gnorm),"GluA2 Q607S; GluA2 Q670S, -60 mV, single recordings and AVG",0.64 and 0.55 and 0.54 and 0.56 and 0.57
same,Normalized conductance (Gnorm),"GluA2 Q607S; GluA2 Q670S, -70 mV, single recordings and AVG",0.72 and 0.61 and 0.64
same,Normalized conductance (Gnorm),"GluA2 Q607S; GluA2 Q670S, -80 mV, single recordings and AVG",0.81 and 0.68 and 0.75 and 0.67 and 0.73
same,Normalized conductance (Gnorm),"GluA2 Q607S; GluA2 Q670S, -90 mV, single recordings and AVG",0.92 and 0.76 and 0.83 and 0.81
same,Normalized conductance (Gnorm),GluA2 Q607S; [11],0.86 and 0.95 and 0.90
same,Normalized current (Inorm),GluA2 Q607S; [11],-1.00
same,Normalized conductance (Gnorm) GluA2 wild type + γ2,GluA2(Q) wt + γ2; 0 mV,0.51 and 0.59 and 0.49 and 0.67 and 0.55 and 0.56
same,Normalized conductance (Gnorm) GluA2 wild type + γ2,GluA2(Q) wt + γ2; 10 mV,0.45 and 0.34 and 0.59 and 0.41
same,Normalized current (Inorm) GluA2 wild type + γ2,GluA2(Q) wt + γ2; 10 mV,0.0271 and 0.03 and 0.0219 and 0.0374 and 0.0215 and 0.0279
same,Normalized conductance (Gnorm) GluA2 wild type + γ2,GluA2(Q) wt + γ2; 20 mV,0.46 and 0.44 and 0.31 and 0.56 and 0.39 and 0.43
same,Normalized current (Inorm) GluA2 wild type + γ2,GluA2(Q) wt + γ2; 20 mV,0.06 and 0.0741 and 0.05 and 0.09 and 0.07
same,Normalized conductance (Gnorm) GluA2 wild type + γ2,GluA2(Q) wt + γ2; 30 mV,0.53 and 0.56 and 0.39 and 0.59 and 0.50 and 0.51
same,Normalized current (Inorm) GluA2 wild type + γ2,GluA2(Q) wt + γ2; 30 mV,0.12 and 0.15 and 0.10 and 0.13
same,Normalized conductance (Gnorm) GluA2 wild type + γ2,GluA2(Q) wt + γ2; 40 mV,0.62 and 0.71 and 0.51 and 0.66 and 0.63
same,Normalized current (Inorm) GluA2 wild type + γ2,GluA2(Q) wt + γ2; 40 mV,0.20 and 0.26 and 0.18 and 0.23 and 0.22
same,Normalized conductance (Gnorm) GluA2 wild type + γ2,GluA2(Q) wt + γ2; 50 mV,0.72 and 0.83 and 0.63 and 0.75 and 0.82
same,Normalized current (Inorm) GluA2 wild type + γ2,GluA2(Q) wt + γ2; 50 mV,0.30 and 0.38 and 0.28 and 0.34 and 0.37 and 0.33
